Experimental data published in patent publication US9255094B2, “Pyrido[4,3-B]indoles and methods of use” (Medivation Technologies, Inc., priority 2009, dated 2016).

Tests used:
[1] = target: T1, rat adrenergic α1B receptor (Rattus norvegicus, UniProt P15823); test: Adrenergic α1B radioligand binding assay ([3H]Prozosin); conditions: compound at 0.1 μM; 0.25 nM [3H]Prozosin; Wistar Rat liver; read-out: Percent Inhibition of ligand binding, Adrenergic (0.1 μM) a1B
T1 construct: from tissue; host or cells: Wistar Rat liver
T1 sequence (P15823 1-515): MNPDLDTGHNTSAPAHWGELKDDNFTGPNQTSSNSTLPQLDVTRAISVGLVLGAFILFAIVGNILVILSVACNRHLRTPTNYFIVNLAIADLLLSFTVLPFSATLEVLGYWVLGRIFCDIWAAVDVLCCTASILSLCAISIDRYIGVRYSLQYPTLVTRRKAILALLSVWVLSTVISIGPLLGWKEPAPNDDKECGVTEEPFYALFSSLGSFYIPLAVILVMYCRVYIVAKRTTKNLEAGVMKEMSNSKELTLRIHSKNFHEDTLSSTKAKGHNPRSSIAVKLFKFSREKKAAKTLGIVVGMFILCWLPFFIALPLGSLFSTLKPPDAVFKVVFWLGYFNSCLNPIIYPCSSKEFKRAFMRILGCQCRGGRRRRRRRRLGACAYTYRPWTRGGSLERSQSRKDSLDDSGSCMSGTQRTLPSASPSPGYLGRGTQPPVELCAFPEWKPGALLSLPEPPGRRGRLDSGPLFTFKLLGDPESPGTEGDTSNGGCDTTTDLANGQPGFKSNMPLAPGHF
Description: To evaluate in radioligand binding assays the activity of compounds of the invention, rat adrenergic α1B receptor obtained from Wistar Rat liver (Garcia-S'ainz, J. A. et al., Biochem. Biophys. Res. Commun. 186:760, 1992; Michel A. D. et al., Br. J. Pharmacol. 98:883, 1989) in a modified Tris-HCl buffer (50 mM Tris-HCl buffer, pH 7.4, 0.5 mM EDTA) is used. Compounds of the invention are incubated with 0.25 nM [^3H]Prozosin for 60 min at 25° C. Non-specific binding is estimated in the presence of 10 μM phentolamine. Receptor proteins are filtered and washed, the filters are then counted to determine [^3H]Prozosin specifically bound. Compounds are screened at 1 μM or lower, using 1% DMSO as vehicle. Compounds of the invention are tested in this biochemical assay and percent inhibition of specific binding is determined.

[2] = target: T2, human recombinant serotonin (5-Hydroxytryptamine) 5-HT2C receptor (Homo sapiens, UniProt P28335); test: Serotonin 5-HT2C radioligand binding assay ([3H]Mesulergine); conditions: compound at 0.1 μM; 1 nM [3H]Mesulergine; CHO-K1 cells; read-out: Percent Inhibition of ligand binding, Serotonin (0.1 μM) 5-HT2C
T2 construct: expressed in transfected cells; host or cells: Chinese hamster ovary (CHO-K1) cells
T2 sequence (P28335 33-458): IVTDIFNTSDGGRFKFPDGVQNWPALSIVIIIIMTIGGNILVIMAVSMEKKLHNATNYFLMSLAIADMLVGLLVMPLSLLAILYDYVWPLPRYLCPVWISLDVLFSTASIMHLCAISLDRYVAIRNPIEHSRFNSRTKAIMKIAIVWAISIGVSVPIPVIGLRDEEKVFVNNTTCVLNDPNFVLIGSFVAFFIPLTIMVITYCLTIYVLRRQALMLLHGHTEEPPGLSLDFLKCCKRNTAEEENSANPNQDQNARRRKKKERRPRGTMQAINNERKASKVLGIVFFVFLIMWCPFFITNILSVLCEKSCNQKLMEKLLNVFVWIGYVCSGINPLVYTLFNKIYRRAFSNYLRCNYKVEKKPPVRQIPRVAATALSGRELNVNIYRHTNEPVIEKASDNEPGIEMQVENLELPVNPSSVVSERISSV
Description: Compounds of the invention were incubated with 1 nM [^3H]Mesulergine for 60 min at 25° C. Non-specific binding was estimated in the presence of 1 μM Mianserin. Receptor proteins were filtered and washed, the filters were then counted to determine [^3H]Mesulergine specifically bound. Compounds were screened at 1 μM or lower, using 1% DMSO as vehicle. Biochemical assay results are presented as the percent inhibition of specific binding in Table 4.

[3] = target: T3, human recombinant serotonin (5-Hydroxytryptamine) 5-HT5A receptor (Homo sapiens, UniProt P47898); test: Serotonin 5-HT5A radioligand binding assay ([3H]LSD); conditions: compound at 0.1 μM; 1.7 nM [3H]LSD; CHO-K1 cells; read-out: Percent Inhibition of ligand binding, Serotonin (0.1 μM) 5-HT5A
T3 construct: expressed in transfected cells; host or cells: Chinese hamster ovary (CHO-K1) cells
T3 sequence (P47898 whole entry): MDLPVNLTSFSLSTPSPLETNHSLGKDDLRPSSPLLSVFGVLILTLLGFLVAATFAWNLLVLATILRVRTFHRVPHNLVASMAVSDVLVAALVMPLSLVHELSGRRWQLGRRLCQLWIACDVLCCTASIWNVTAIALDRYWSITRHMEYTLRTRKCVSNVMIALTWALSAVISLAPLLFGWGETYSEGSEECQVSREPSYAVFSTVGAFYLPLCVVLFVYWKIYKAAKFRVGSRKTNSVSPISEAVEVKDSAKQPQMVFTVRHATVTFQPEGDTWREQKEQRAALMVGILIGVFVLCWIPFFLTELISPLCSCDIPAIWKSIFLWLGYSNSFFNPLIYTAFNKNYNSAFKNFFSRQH
Description: Compounds of the invention were incubated with 1.7 nM [^3H]Lysergic acid diethylamide (LSD) for 60 min at 37° C. […] Receptor proteins were filtered and washed, the filters were then counted to determine [^3H]LSD specifically bound. Compounds were screened at 1 μM or lower, using 1% DMSO as vehicle. Compounds of the invention were tested in this biochemical assay and percent inhibition of specific binding was determined. Biochemical assay results are presented as the percent inhibition of specific binding in Table 4.

[4] = target: human recombinant serotonin (5-Hydroxytryptamine) 5-HT7 receptor (Homo sapiens, UniProt P34969); test: Serotonin 5-HT7 radioligand binding assay ([3H]LSD); conditions: compound at 0.1 μM; 5.5 nM [3H]LSD; CHO cells; read-out: Percent Inhibition of ligand binding, Serotonin (0.1 μM) 5-HT7
Sequence of human recombinant serotonin (5-Hydroxytryptamine) 5-HT7 receptor (P34969 whole entry): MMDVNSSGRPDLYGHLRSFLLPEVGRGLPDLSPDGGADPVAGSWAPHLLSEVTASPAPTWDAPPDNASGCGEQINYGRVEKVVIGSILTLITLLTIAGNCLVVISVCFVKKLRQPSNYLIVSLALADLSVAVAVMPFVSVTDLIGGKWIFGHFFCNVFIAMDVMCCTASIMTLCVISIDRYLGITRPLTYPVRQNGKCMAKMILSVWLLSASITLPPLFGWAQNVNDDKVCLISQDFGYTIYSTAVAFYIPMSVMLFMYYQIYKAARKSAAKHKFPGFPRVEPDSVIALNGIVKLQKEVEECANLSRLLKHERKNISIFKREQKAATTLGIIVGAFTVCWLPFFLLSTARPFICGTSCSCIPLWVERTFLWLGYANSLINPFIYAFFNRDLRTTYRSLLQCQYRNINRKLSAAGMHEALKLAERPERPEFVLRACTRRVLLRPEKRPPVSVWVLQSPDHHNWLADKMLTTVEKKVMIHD
Description: Compounds of invention were incubated with 5.5 nM [^3H] Lysergic acid diethylamide (LSD) for 2 h at 25° C. […] Receptor proteins were filtered and washed, the filters were then counted to determine [^3H]LSD specifically bound. Compounds were screened at 1 μM or lower, using 1% DMSO as vehicle. Biochemical assay results are presented as the percent inhibition of specific binding in Table 4.

Compound | inhibition at 0.1 µM [1] | inhibition at 0.1 µM [2] | inhibition at 0.1 µM [3] | inhibition at 0.1 µM [4]
CC[C@](O)(Cn1c2c(c3cc(C)ccc31)CN(C)CC2)c1ccncc1 [Compound 1-63, (R)-1-(2,8-Dimethyl-3,4-dihydro-1H-pyrido[4,3-b]indol-5(2H)-yl)-2-(pyridine-4-yl)butan-2-ol] | 5% | 25% | 15% | 25%
Cc1ccc2c(c1)c1c(n2CCc2ccc(C)nc2)CCN(CC(F)(F)F)C1 [Compound 1-65, 8-methyl-5-(2-(6-methylpyridin-3-yl)ethyl)-2-(2,2,2-trifluoroethyl)-2,3,4,5-tetrahydro-1H-pyrido[4,3-b]indole] | -4% | 6% | -12% | -15%
CC[C@@](O)(Cn1c2c(c3cc(C)ccc31)CN(C)CC2)c1ccc(F)cc1 [Compound 1-66, (S)-1-(2,8-dimethyl-3,4-dihydro-1H-pyrido[4,3-b]indol-5(2H)-yl)-2-(4-fluorophenyl)butan-2-ol] | 11% | 84% | 31% | 19%
CCCC[C@@](O)(Cn1c2c(c3cc(Cl)ccc31)CN(C)CC2)c1ccc(F)cc1 [Compound 1-67, (S)-1-(8-chloro-2-methyl-3,4-dihydro-1H-pyrido[4,3-b]indol-5(2H)-yl)-2-(4-fluorophenyl)hexan-2-ol] | -2% | 51% | -11% | -8%
